Source: patent publication US10308639B2, “Phosphatidylinositol 3-kinase inhibitors” (Gilead Sciences, Inc., priority 2014, dated 2019)
Read-outs that look alike come from different tables or passages of the source.

Legend:
Format in all cases: biochemical
[1] = biological target: T1, PI3Kβ (Homo sapiens, UniProt P42338); experiment: TR-FRET enzymatic activity assay, PI3Kβ
T1 construct: made in house

[2] = biological target: T2, PI3Kδ (Homo sapiens, UniProt O00329); experiment: TR-FRET enzymatic activity assay, PI3Kδ
T2 construct: made in house

[3] = biological target: T3, PI3Kγ (Homo sapiens, UniProt P48736); experiment: TR-FRET enzymatic activity assay, PI3Kγ; conditions: read-out: PI3Kγ IC50
T3 construct: made in house
Procedure, shortened: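 Read-out is TR-FRET. The assay scores enzymatic activity of the individual PI3K isoforms in the presence of compound.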

[4] = Table 2, TR-FRET, 2x Km ATP, 30 minutes at 25° C.

T1 sequence (P42338 whole entry): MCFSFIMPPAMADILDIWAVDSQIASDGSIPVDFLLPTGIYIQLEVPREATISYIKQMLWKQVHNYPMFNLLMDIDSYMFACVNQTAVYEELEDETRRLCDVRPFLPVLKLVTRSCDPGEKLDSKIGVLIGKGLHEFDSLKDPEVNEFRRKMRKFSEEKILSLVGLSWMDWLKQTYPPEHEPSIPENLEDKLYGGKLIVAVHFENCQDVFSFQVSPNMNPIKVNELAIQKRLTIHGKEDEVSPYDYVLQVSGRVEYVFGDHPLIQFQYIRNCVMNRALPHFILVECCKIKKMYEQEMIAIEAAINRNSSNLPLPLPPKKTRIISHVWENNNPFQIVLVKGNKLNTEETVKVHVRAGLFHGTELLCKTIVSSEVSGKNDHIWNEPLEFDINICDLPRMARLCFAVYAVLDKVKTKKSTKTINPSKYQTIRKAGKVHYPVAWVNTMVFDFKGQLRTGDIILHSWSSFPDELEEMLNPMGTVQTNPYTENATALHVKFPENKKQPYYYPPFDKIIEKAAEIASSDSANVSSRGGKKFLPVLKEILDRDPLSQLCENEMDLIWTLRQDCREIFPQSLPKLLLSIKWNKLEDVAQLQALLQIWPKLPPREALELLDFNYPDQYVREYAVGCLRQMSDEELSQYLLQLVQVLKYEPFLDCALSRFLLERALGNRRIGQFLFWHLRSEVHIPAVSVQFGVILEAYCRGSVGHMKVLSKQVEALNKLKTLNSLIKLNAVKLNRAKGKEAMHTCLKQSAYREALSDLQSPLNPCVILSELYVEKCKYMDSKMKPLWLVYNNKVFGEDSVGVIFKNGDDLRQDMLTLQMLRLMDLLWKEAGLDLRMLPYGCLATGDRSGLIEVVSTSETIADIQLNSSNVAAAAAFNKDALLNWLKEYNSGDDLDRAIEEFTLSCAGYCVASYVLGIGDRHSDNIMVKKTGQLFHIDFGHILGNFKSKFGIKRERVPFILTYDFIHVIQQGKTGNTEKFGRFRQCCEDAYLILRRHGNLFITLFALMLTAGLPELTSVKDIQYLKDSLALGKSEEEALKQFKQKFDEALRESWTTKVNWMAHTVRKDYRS
T1 sequence (P27986 whole entry partner): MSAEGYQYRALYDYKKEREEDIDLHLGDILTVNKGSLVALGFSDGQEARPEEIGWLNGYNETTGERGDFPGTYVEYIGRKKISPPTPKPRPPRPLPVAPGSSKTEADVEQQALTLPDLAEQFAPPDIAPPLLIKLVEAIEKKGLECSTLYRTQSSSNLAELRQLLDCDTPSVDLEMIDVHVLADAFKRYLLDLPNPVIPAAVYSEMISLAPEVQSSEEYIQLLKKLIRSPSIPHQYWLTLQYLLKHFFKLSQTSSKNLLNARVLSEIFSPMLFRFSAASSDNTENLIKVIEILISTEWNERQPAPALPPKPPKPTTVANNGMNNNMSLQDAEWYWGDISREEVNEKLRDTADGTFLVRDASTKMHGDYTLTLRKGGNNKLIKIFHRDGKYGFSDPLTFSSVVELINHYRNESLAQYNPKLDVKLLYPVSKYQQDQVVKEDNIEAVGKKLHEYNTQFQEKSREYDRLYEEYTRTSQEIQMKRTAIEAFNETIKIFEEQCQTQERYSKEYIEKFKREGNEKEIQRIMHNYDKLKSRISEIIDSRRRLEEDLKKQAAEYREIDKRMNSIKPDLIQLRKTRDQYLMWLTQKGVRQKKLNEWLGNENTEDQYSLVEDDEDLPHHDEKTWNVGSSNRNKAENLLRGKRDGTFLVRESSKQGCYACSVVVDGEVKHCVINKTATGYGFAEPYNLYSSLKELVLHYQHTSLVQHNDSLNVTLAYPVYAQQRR
T2 sequence (O00329 whole entry): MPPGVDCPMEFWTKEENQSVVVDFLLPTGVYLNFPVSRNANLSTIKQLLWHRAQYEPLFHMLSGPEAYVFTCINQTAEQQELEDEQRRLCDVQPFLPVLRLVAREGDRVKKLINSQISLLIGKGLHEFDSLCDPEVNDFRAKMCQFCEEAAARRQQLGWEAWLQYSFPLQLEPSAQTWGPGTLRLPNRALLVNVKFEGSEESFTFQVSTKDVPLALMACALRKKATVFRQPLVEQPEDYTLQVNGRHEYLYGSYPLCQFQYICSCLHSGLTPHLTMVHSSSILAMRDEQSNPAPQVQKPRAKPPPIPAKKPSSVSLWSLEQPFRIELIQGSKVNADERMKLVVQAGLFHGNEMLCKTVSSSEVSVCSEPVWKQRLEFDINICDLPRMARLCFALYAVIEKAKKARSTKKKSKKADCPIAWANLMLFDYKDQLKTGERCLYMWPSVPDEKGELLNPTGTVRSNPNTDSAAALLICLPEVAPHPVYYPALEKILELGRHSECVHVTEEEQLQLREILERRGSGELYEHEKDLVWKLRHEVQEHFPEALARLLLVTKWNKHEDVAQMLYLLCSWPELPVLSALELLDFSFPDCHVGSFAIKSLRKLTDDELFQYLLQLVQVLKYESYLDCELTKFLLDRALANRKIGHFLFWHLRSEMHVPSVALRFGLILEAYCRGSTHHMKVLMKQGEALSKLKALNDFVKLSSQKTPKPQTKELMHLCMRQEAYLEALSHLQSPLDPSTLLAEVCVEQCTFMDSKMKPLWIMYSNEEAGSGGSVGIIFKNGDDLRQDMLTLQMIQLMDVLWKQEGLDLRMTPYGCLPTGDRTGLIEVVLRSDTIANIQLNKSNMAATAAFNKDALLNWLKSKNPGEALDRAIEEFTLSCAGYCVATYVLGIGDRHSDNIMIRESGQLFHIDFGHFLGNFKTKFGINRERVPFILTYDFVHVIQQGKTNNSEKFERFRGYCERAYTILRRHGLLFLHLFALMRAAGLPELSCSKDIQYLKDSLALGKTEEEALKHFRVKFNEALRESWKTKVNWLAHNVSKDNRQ
T2 sequence (P27986 whole entry partner): as the sequence (P27986 whole entry partner) above
T3 sequence (P48736 whole entry): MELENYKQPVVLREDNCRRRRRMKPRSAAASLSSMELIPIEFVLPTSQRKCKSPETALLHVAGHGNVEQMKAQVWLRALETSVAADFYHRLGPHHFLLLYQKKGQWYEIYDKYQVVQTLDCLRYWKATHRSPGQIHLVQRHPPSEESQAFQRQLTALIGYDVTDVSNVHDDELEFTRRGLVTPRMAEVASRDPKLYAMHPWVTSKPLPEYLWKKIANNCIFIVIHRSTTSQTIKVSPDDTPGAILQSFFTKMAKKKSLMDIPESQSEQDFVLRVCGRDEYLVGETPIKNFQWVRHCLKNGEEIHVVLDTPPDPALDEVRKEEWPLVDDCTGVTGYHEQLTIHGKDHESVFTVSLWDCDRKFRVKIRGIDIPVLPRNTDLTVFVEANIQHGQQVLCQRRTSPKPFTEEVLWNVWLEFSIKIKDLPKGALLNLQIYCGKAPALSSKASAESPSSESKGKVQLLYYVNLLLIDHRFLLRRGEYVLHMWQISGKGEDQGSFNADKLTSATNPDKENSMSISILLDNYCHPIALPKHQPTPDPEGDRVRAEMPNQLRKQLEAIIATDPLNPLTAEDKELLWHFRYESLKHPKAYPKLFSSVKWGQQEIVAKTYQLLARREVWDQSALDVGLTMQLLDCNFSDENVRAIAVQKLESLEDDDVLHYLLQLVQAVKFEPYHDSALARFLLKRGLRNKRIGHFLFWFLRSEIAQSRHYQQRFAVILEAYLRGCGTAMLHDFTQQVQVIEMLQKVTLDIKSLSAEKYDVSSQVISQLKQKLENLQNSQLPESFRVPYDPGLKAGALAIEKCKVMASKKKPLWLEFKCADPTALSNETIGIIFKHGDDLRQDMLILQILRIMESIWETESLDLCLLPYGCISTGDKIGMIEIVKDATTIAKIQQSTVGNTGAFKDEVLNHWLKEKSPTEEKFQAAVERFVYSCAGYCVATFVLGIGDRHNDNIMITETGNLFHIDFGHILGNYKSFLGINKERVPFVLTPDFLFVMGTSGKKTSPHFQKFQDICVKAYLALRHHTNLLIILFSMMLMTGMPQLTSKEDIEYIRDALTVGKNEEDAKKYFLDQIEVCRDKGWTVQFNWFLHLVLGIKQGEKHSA

IC50 ([1]; Table 2a, same assay) | IC50 ([2]; Table 2a, same assay) | IC50 ([3]; Table 2a, same assay) | IC50 [1, 4] | IC50 [2, 4] | IC50 [3] | IC50 [3, 4] | SMILES
18 nM | 21 nM | > 10000 nM | – | – | – | – | N#Cc1cc(F)cc2c(=O)n(-c3cc[nH]n3)c([C@@H](Nc3nc(N)nc(N)c3Cl)C3CC3)nc12 [Compound 273, (S)-2-(cyclopropyl((2,6-diamino-5-chloropyrimidin-4-yl)amino)methyl)-6-fluoro-4-oxo-3-(1H-pyrazol-3-yl)-3,4-dihydroquinazoline-8-carbonitrile]
78 nM | 27 nM | 950 nM | – | – | – | – | C[C@H](Nc1nc(N)nc(C(F)F)c1C#N)c1nc2cccc(C(F)F)c2c(=O)n1-c1cn[nH]c1 [Compound 179, (S)-2-amino-4-(difluoromethyl)-6-((1-(5-(difluoromethyl)-4-oxo-3-(1H-pyrazol-4-yl)-3,4-dihydroquinazolin-2-yl)ethyl)amino)pyrimidine-5-carbonitrile]
120 nM | 26 nM | 5700 nM | – | – | – | – | CCC[C@H](Nc1nc(N)nc(N)c1Cl)c1nc2cccc(Cl)c2c(=O)n1-c1c[nH]cn1 [Compound 282, (S)-5-chloro-2-(1-((2,6-diamino-5-chloropyrimidin-4-yl)amino)butyl)-3-(1H-imidazol-4-yl)quinazolin-4(3H)-one]
– | – | – | 150 nM | 36 nM | > 10000 nM | – | CC[C@H](Nc1nc(N)nc(N)c1Cl)c1nc2c(Cl)ccc(Cl)c2c(=O)n1-c1cc[nH]n1 [Compound 66, (S)-5,8-dichloro-2-(1-((2,6-diamino-5-chloropyrimidin-4-yl)amino)propyl)-3-(1H-pyrazol-3-yl)quinazolin-4(3H)-one]
52 nM | 44 nM | > 10000 nM | – | – | – | – | Nc1nc(N)c(Cl)c(N[C@H](c2nc3c(Cl)ccc(F)c3c(=O)n2-c2cc[nH]n2)C2CC2)n1 [Compound 148, (S)-8-chloro-2-(cyclopropyl((2,6-diamino-5-chloropyrimidin-4-yl)amino)methyl)-5-fluoro-3-(1H-pyrazol-3-yl)quinazolin-4(3H)-one]
2 nM | 3 nM | 760 nM | – | – | – | – | C[C@H](Nc1nc(N)nc(N)c1C#N)c1nc2ccccc2c(=O)n1-c1cc[nH]n1 [Compound 274, (S)-2,4-diamino-6-((1-(4-oxo-3-(1H-pyrazol-3-yl)-3,4-dihydroquinazolin-2-yl)ethyl)amino)pyrimidine-5-carbonitrile]
31 nM | 8 nM | 960 nM | – | – | – | – | Cc1c[nH]nc1-n1c([C@@H](Nc2nc(N)nc(C)c2C#N)C2CC2)nc2cccc(Cl)c2c1=O [Compound 244, (S)-2-amino-4-(((5-chloro-3-(4-methyl-1H-pyrazol-3-yl)-4-oxo-3,4-dihydroquinazolin-2-yl)(cyclopropyl)methyl)amino)-6-methylpyrimidine-5-carbonitrile]
– | – | – | 1 nM | 1 nM | – | 600 nM | N#Cc1c(N)nc(N)nc1N[C@H](c1nc2c(Cl)ccc(Cl)c2c(=O)n1-c1cc[nH]n1)C1CC1 [Compound 32, (S)-2,4-diamino-6-((cyclopropyl(5,8-dichloro-4-oxo-3-(1H-pyrazol-3-yl)-3,4-dihydroquinazolin-2-yl)methyl)amino)pyrimidine-5-carbonitrile]
2 nM | 0.7 nM | 320 nM | – | – | – | – | C[C@H](Nc1nc(N)nc(N)c1C#N)c1nc2cccc(C(F)(F)F)c2c(=O)n1-c1cc[nH]n1 [Compound 205, (S)-2,4-diamino-6-((1-(4-oxo-3-(1H-pyrazol-3-yl)-5-(trifluoromethyl)-3,4-dihydroquinazolin-2-yl)ethyl)amino)pyrimidine-5-carbonitrile]
– | – | – | 88 nM | 13 nM | – | 1600 nM | CC[C@H](Nc1ncnc2cccnc12)c1nc2c(Cl)ccc(Cl)c2c(=O)n1-c1cn[nH]c1 [Compound 41, (S)-5,8-dichloro-3-(1H-pyrazol-4-yl)-2-(1-(pyrido[3,2-d]pyrimidin-4-ylamino)propyl)quinazolin-4(3H)-one]
– | – | – | 39 nM | 9 nM | > 10000 nM | – | CC[C@H](Nc1ncnn2ccnc12)c1nc2c(Cl)ccc(Cl)c2c(=O)n1-c1cc[nH]n1 [Compound 43, (S)-5,8-dichloro-2-(1-(imidazo[2,1-f][1,2,4]triazin-4-ylamino)propyl)-3-(1H-pyrazol-3-yl)quinazolin-4(3H)-one]
– | – | – | 76 nM | 13 nM | > 10000 nM | – | CC[C@H](Nc1nc(F)nc2[nH]cnc12)c1nc2c(Cl)ccc(Cl)c2c(=O)n1-c1cc[nH]n1 [Compound 53, (S)-5,8-dichloro-2-(1-((2-fluoro-9H-purin-6-yl)amino)propyl)-3-(1H-pyrazol-3-yl)quinazolin-4(3H)-one]
70 nM | 4 nM | 730 nM | – | – | – | – | Cc1c[nH]nc1-n1c([C@@H](Nc2nc(N)nc(N)c2C#N)C2CC2)nc2cccc(Cl)c2c1=O [Compound 247, (S)-2,4-diamino-6-(((5-chloro-3-(4-methyl-1H-pyrazol-3-yl)-4-oxo-3,4-dihydroquinazolin-2-yl)(cyclopropyl)methyl)amino)pyrimidine-5-carbonitrile]
– | – | – | 21 nM | 10 nM | – | 1400 nM | CC[C@H](Nc1nc(N)nc(N)c1C#N)c1nc2c(C)ccc(F)c2c(=O)n1-c1cn[nH]c1 [Compound 35, (S)-2,4-diamino-6-((1-(5-fluoro-8-methyl-4-oxo-3-(1H-pyrazol-4-yl)-3,4-dihydroquinazolin-2-yl)propyl)amino)pyrimidine-5-carbonitrile]
65 nM | 77 nM | > 10000 nM | – | – | – | – | C[C@@H](Nc1nc(N)nc(N)c1Cl)c1nc2cccc(C(F)F)c2c(=O)n1-c1cc[nH]n1 [Compound 181, (R)-2-(1-((2,6-diamino-5-chloropyrimidin-4-yl)amino)ethyl)-5-(difluoromethyl)-3-(1H-pyrazol-3-yl)quinazolin-4(3H)-one]
– | – | – | 8 nM | 0.4 nM | – | 93 nM | C[C@H](Nc1nc(N)nc(N)c1C#N)c1nc2cccc(Cl)c2c(=O)n1-c1n[nH]cc1Br [Compound 84, (S)-2,4-diamino-6-((1-(3-(4-bromo-1H-pyrazol-3-yl)-5-chloro-4-oxo-3,4-dihydroquinazolin-2-yl)ethyl)amino)pyrimidine-5-carbonitrile]

SMILES | IC50 ([1]; Table 2a, same assay) | IC50 ([2]; Table 2a, same assay) | IC50 ([3]; Table 2a, same assay) | IC50 [1, 4] | IC50 [2, 4] | IC50 [3] | IC50 [3, 4]
Cc1ccc(Cl)c2nc([C@H](C)Nc3nc(N)nc(N)c3Cl)n(-c3cc[nH]n3)c(=O)c12 [Compound 223, (S)-8-chloro-2-(1-((2,6-diamino-5-chloropyrimidin-4-yl)amino)ethyl)-5-methyl-3-(1H-pyrazol-3-yl)quinazolin-4(3H)-one] | 3 nM | 3 nM | 9400 nM | – | – | – | –
C[C@H](NC(=O)c1nccnc1N)c1nc2cccc(Cl)c2c(=O)n1-c1cc[nH]n1 [Compound 121, (S)-3-amino-N-(1-(5-chloro-4-oxo-3-(1H-pyrazol-3-yl)-3,4-dihydroquinazolin-2-yl)ethyl)pyrazine-2-carboxamide] | – | – | – | 79 nM | 20 nM | – | 890 nM
Cc1cc(-n2c([C@H](C)Nc3ncnc(N)c3C#N)nc3cccc(Cl)c3c2=O)n[nH]1 [Compound 7, (S)-4-amino-6-((1-(5-chloro-3-(5-methyl-1H-pyrazol-3-yl)-4-oxo-3,4-dihydroquinazolin-2-yl)ethyl)amino)pyrimidine-5-carbonitrile] | – | – | – | 200 nM | 43 nM | > 10000 nM | –
